Data reported in ChEMBL document CHEMBL1201862, “PubChem BioAssay data set” (2004).
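Interpolation was linear, between the two tested concentrations surrounding the appropriate level; five concentrations were tested over 48 hours in 96-well plates. At the GI50, growth is halved.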 The source made the active and inactive calls. Rule as the data show it: active = GI50 up to about 1.1 µM and inactive = higher.

Assays:
Assay in all cases: NCI-60 cell line screen, 48 h
786-0 = tested on: 786-0
A498 = tested on: A498
A549 = tested on: A549
ACHN = tested on: ACHN
BT-549 = tested on: BT-549
CAKI-1 = tested on: CAKI-1
CCRF-CEM = tested on: CCRF-CEM
COLO 205 = tested on: COLO 205
DU-145 = tested on: DU-145
EKVX = tested on: EKVX
HCC 2998 = tested on: HCC 2998
HCT-116 = tested on: HCT-116
HCT-15 = tested on: HCT-15
HL-60 = tested on: HL-60
HOP-62 = tested on: HOP-62
HOP-92 = tested on: HOP-92
HT-29 = tested on: HT-29
Hs-578T = tested on: Hs-578T
IGROV-1 = tested on: IGROV-1
K562 = tested on: K562
KM12 = tested on: KM12
LOX IMVI = tested on: LOX IMVI
M14 = tested on: M14
MCF7 = tested on: MCF7
MDA-MB-231 = tested on: MDA-MB-231
MDA-MB-435 = tested on: MDA-MB-435
MDA-N = tested on: MDA-N
MOLT-4 = tested on: MOLT-4
Malme-3M = tested on: Malme-3M
NCI-H226 = tested on: NCI-H226
NCI-H23 = tested on: NCI-H23
NCI-H460 = tested on: NCI-H460
NCI-H522 = tested on: NCI-H522
NCI/ADR-RES = tested on: NCI/ADR-RES
OVCAR-3 = tested on: OVCAR-3
OVCAR-4 = tested on: OVCAR-4
OVCAR-5 = tested on: OVCAR-5
OVCAR-8 = tested on: OVCAR-8
PC-3 = tested on: PC-3
RPMI-8226 = tested on: RPMI-8226
RXF 393 = tested on: RXF 393
SF-268 = tested on: SF-268
SF-295 = tested on: SF-295
SF-539 = tested on: SF-539
SK-MEL-28 = tested on: SK-MEL-28
SK-MEL-2 = tested on: SK-MEL-2
SK-MEL-5 = tested on: SK-MEL-5
SK-OV-3 = tested on: SK-OV-3
SN12C = tested on: SN12C
SNB-19 = tested on: SNB-19
SNB-75 = tested on: SNB-75
SR = tested on: SR
SW-620 = tested on: SW-620
T47D = tested on: T47D
TK-10 = tested on: TK-10
U-251 = tested on: U-251
UACC-257 = tested on: UACC-257
UACC-62 = tested on: UACC-62
UO-31 = tested on: UO-31
DMS-114 = tested on: DMS-114
LXFL 529 = tested on: LXFL 529
M19-MEL = tested on: M19-MEL
SNB-78 = tested on: SNB-78
DLD-1 = tested on: DLD-1
KM-20L2 = tested on: KM-20L2

O=C(N/N=C/c1ccc2c(c1)CCC2)c1ccccc1O
GI50 (786-0): 18.5 µM (inactive)
GI50 (A498): 15.7 µM (inactive)
GI50 (A549): 21.2 µM (inactive)
GI50 (ACHN): 18.6 µM (inactive)
GI50 (BT-549): 19.3 µM (inactive)
GI50 (CAKI-1): 28.4 µM (inactive)
GI50 (CCRF-CEM): 8.71 µM (inactive)
GI50 (COLO 205): 53.7 µM (inactive)
GI50 (DU-145): 48 µM (inactive)
GI50 (EKVX): 27.1 µM (inactive)
GI50 (HCC 2998): 13.3 µM (inactive)
GI50 (HCT-116): 19.4 µM (inactive)
GI50 (HCT-15): 22.9 µM
GI50 (HL-60): 23.2 µM (inactive)
GI50 (HOP-62): 17 µM (inactive)
GI50 (HOP-92): 24.5 µM (inactive)
GI50 (HT-29): 27.3 µM (inactive)
GI50 (Hs-578T): 22.9 µM (inactive)
GI50 (IGROV-1): 17.8 µM (inactive)
GI50 (K562): 38.9 µM (inactive)
GI50 (KM12): 20.9 µM (inactive)
GI50 (LOX IMVI): 27.8 µM (inactive)
GI50 (M14): 30 µM (inactive)
GI50 (MCF7): 16.2 µM (inactive)
GI50 (MDA-MB-231): 19.5 µM (inactive)
GI50 (MDA-MB-435): 21.5 µM (inactive)
GI50 (MDA-N): 19.4 µM (inactive)
GI50 (MOLT-4): 36.9 µM (inactive)
GI50 (Malme-3M): 21.4 µM (inactive)
GI50 (NCI-H226): 32.1 µM (inactive)
GI50 (NCI-H23): 24.2 µM (inactive)
GI50 (NCI-H460): 22.1 µM (inactive)
GI50 (NCI-H522): 21.5 µM (inactive)
GI50 (NCI/ADR-RES): 24.4 µM (inactive)
GI50 (OVCAR-3): 16.8 µM (inactive)
GI50 (OVCAR-4): 24.8 µM (inactive)
GI50 (OVCAR-5): 32.5 µM (inactive)
GI50 (OVCAR-8): 25.4 µM (inactive)
GI50 (PC-3): 19.7 µM (inactive)
GI50 (RPMI-8226): 32.5 µM (inactive)
GI50 (RXF 393): 23 µM (inactive)
GI50 (SF-268): 23.8 µM (inactive)
GI50 (SF-295): 16.4 µM (inactive)
GI50 (SF-539): 31.5 µM (inactive)
GI50 (SK-MEL-28): 23.5 µM (inactive)
GI50 (SK-MEL-2): 23.4 µM (inactive)
GI50 (SK-MEL-5): 33.9 µM (inactive)
GI50 (SK-OV-3): 12.1 µM (inactive)
GI50 (SN12C): 23.1 µM (inactive)
GI50 (SNB-19): 19.8 µM (inactive)
GI50 (SNB-75): 16.8 µM (inactive)
GI50 (SR): 30.9 µM (inactive)
GI50 (SW-620): 31.1 µM (inactive)
GI50 (T47D): 25.5 µM (inactive)
GI50 (TK-10): 23 µM (inactive)
GI50 (U-251): 17.7 µM (inactive)
GI50 (UACC-257): 28.6 µM (inactive)
GI50 (UACC-62): 22 µM (inactive)
GI50 (UO-31): 29 µM (inactive)

COc1cc2ccc1NC(=O)N1CCN(CC1)C(=O)Nc1ccc(cc1OC)-c1ccc(c(OC)c1)NC(=O)N1CCN(CC1)C(=O)Nc1ccc-2cc1OC
GI50 (A498): > 100 µM (inactive)
GI50 (ACHN): > 100 µM (inactive)
GI50 (CCRF-CEM): > 100 µM (inactive)
GI50 (COLO 205): > 100 µM (inactive)
GI50 (DMS-114): > 100 µM (inactive)
GI50 (HCC 2998): > 100 µM (inactive)
GI50 (HCT-116): > 100 µM (inactive)
GI50 (HOP-62): > 100 µM (inactive)
GI50 (HOP-92): > 100 µM (inactive)
GI50 (HT-29): > 100 µM (inactive)
GI50 (IGROV-1): > 100 µM (inactive)
GI50 (K562): > 100 µM (inactive)
GI50 (KM12): > 100 µM (inactive)
GI50 (LXFL 529): > 100 µM (inactive)
GI50 (M14): > 100 µM (inactive)
GI50 (M19-MEL): > 100 µM (inactive)
GI50 (MOLT-4): > 100 µM (inactive)
GI50 (NCI-H23): > 100 µM (inactive)
GI50 (NCI-H460): > 100 µM (inactive)
GI50 (NCI-H522): > 100 µM (inactive)
GI50 (OVCAR-3): > 100 µM (inactive)
GI50 (OVCAR-4): > 100 µM (inactive)
GI50 (RPMI-8226): > 100 µM (inactive)
GI50 (RXF 393): > 100 µM (inactive)
GI50 (SF-268): > 100 µM (inactive)
GI50 (SF-295): > 100 µM (inactive)
GI50 (SF-539): > 100 µM (inactive)
GI50 (SK-MEL-28): > 100 µM (inactive)
GI50 (SK-MEL-2): > 100 µM (inactive)
GI50 (SK-OV-3): > 100 µM (inactive)
GI50 (SNB-19): > 100 µM (inactive)
GI50 (SNB-75): > 100 µM (inactive)
GI50 (SNB-78): > 100 µM (inactive)
GI50 (SR): > 100 µM (inactive)
GI50 (UACC-257): > 100 µM (inactive)
GI50 (UACC-62): > 100 µM (inactive)
GI50 (UO-31): > 100 µM (inactive)

C/C(=N\NC(=O)C[n+]1ccccc1)c1sc(-c2nc(C)c(/C(C)=N/NC(=O)C[n+]3ccccc3)s2)nc1C
GI50 (786-0): > 100 µM (inactive)
GI50 (A498): > 100 µM (inactive)
GI50 (A549): > 100 µM (inactive)
GI50 (ACHN): > 100 µM (inactive)
GI50 (CAKI-1): > 100 µM (inactive)
GI50 (CCRF-CEM): > 10 µM (inactive)
GI50 (COLO 205): > 100 µM (inactive)
GI50 (DLD-1): > 100 µM (inactive)
GI50 (DMS-114): 38.3 µM (inactive)
GI50 (EKVX): > 100 µM (inactive)
GI50 (HCC 2998): > 100 µM (inactive)
GI50 (HCT-116): 68.5 µM (inactive)
GI50 (HCT-15): 37.7 µM
GI50 (HOP-62): > 100 µM (inactive)
GI50 (HOP-92): > 100 µM (inactive)
GI50 (HT-29): 36.3 µM (inactive)
GI50 (IGROV-1): > 100 µM (inactive)
GI50 (K562): 41.1 µM (inactive)
GI50 (KM-20L2): > 100 µM (inactive)
GI50 (KM12): > 100 µM (inactive)
GI50 (LOX IMVI): > 100 µM (inactive)
GI50 (LXFL 529): 95.9 µM (inactive)
GI50 (M14): > 100 µM (inactive)
GI50 (M19-MEL): > 100 µM (inactive)
GI50 (MOLT-4): 95.9 µM (inactive)
GI50 (Malme-3M): > 100 µM (inactive)
GI50 (NCI-H226): > 100 µM (inactive)
GI50 (NCI-H23): > 100 µM (inactive)
GI50 (NCI-H460): > 100 µM (inactive)
GI50 (OVCAR-3): > 100 µM (inactive)
GI50 (OVCAR-5): > 100 µM (inactive)
GI50 (OVCAR-8): > 100 µM (inactive)
GI50 (RPMI-8226): 43.9 µM (inactive)
GI50 (RXF 393): > 100 µM (inactive)
GI50 (SF-268): > 100 µM (inactive)
GI50 (SF-295): > 100 µM (inactive)
GI50 (SF-539): > 100 µM (inactive)
GI50 (SK-MEL-28): > 100 µM (inactive)
GI50 (SK-MEL-2): > 100 µM (inactive)
GI50 (SK-MEL-5): > 100 µM (inactive)
GI50 (SK-OV-3): > 100 µM (inactive)
GI50 (SN12C): > 100 µM (inactive)
GI50 (SNB-19): > 100 µM (inactive)
GI50 (SNB-75): > 100 µM (inactive)
GI50 (SNB-78): > 100 µM (inactive)
GI50 (SW-620): > 100 µM (inactive)
GI50 (TK-10): > 100 µM (inactive)
GI50 (U-251): > 100 µM (inactive)
GI50 (UACC-257): > 100 µM (inactive)
GI50 (UACC-62): 65 µM (inactive)
GI50 (UO-31): > 100 µM (inactive)
